Patent US10414754B2, “Indolizine compounds, a process for their preparation and pharmaceutical compositions containing them” (LES LABORATOIRES SERVIER, priority 2013, dated 2019)
Structures can show the parent of a compound that is named as a salt.

Key:
[1] = test system: RS4;11 leukaemia tumour line; test: In vitro cytotoxicity (MTT) on RS4;11; format: cell-based; details: RS4;11 cells, 48 hours exposure
Protocol: The cytotoxicity studies were carried out on the RS4;11 leukaemia tumour line.
The cells are distributed onto microplates and exposed to the test compounds for 48 hours.
The cell viability is then quantified by a colorimetric assay, the Microculture Tetrazolium Assay (Cancer Res., 1987, 47, 939-942).

[2] = molecular target: T1, Bcl-2 protein (histag-Bcl-2, UniProtKB P10415) (Homo sapiens, UniProt P10415); test: Inhibition of Bcl-2 by the fluorescence polarisation technique; format: binding; details: for IC50: fluorescence polarisation, 2 hours incubation, read-out: IC50 (nM) Bcl-2 FP; for percentage fluorescence polarisation inhibition (partial inhibitors), Bcl-2 FP: @ 10 μM test compound
T1 construct: His tag
T1 sequence (P10415 whole entry): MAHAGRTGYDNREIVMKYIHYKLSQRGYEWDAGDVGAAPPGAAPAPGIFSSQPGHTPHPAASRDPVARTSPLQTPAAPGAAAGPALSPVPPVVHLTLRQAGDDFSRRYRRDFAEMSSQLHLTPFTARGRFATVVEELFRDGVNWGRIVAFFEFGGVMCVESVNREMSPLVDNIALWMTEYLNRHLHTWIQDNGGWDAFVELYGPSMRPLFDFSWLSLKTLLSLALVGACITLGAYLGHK
Summary of the method: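 Fluorescence polarisation competition: His-tagged human Bcl-2 (2.50×10^−8 M final) was mixed with fluorescein-labelled peptide (1.00×10^−8 M final) and increasing compound concentrations. Buffer was 10 mM Hepes, 150 mM NaCl, 0.05% Tween20, pH 7.4. Polarisation was read after 2 h.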

Row | SMILES | IC50 [2] | percentage fluorescence polarisation inhibition (partial inhibitors), Bcl-2 FP [2] | IC50 ([1]; Homo sapiens) | IC50 [1]
1 | C[C@@H]1Cc2ccccc2CN1C(=O)c1ccc(F)cc1-c1cc(C(=O)N(c2ccc(O)cc2)c2cnn(C)c2)c2n1CCCC2 [Example 61, 3-(5-Fluoro-2-{[(3R)-3-methyl-3,4-dihydroisoquinolin-2(1H)-yl]-carbonyl}phenyl)-N-(4-hydroxyphenyl)-N-(1-methyl-1H-pyrazol-4-yl)-5,6,7,8-tetrahydroindolizine-1-carboxamide] | 7 nM |  | 61.3 nM | 
2 | C[C@@H]1Cc2ccccc2CN1C(=O)c1ccc(F)cc1-c1cc(C(=O)N(c2ccc(O)cc2)c2cnc3c(ccn3C)c2)c2ccccn12 [Example 63, 3-(5-Fluoro-2-{[(3R)-3-methyl-3,4-dihydroisoquinolin-2(1H)-yl]-carbonyl}phenyl)-N-(4-hydroxyphenyl)-N-(1-methyl-1H-pyrrolo[2,3-b]pyridin-5-yl)indolizine-1-carboxamide] | 6.2 nM |  | 25.4 nM | 
3 | C[C@@H]1Cc2ccccc2CN1C(=O)c1ccc(F)cc1-c1cc(C(=O)N(c2ccc(O)cc2)c2cnc3c(ccn3C)c2)c2n1CCCC2 [Example 65, 3-(5-Fluoro-2-{[(3R)-3-methyl-3,4-dihydroisoquinolin-2(1H)-yl]-carbonyl}phenyl)-N-(4-hydroxyphenyl)-N-(1-methyl-1H-pyrrolo[2,3-b]pyridin-5-yl)-5,6,7,8-tetrahydroindolizine-1-carboxamide] | 5.3 nM |  | 62.8 nM | 
4 | C[C@@H]1Cc2ccccc2CN1C(=O)c1cc2c(cc1-c1cc(C(=O)N(c3ccc(O)cc3)c3cnc4ncnn4c3)c3ccccn13)OCO2 [Example 66, N-(4-Hydroxyphenyl)-3-(6-{[(3R)-3-methyl-3,4-dihydroisoquinolin-2(1H)-yl]carbonyl}-1,3-benzodioxol-5-yl)-N-([1,2,4]triazolo[1,5-a]pyrimidin-6-yl)-indolizine-1-carboxamide] | 4.7 nM |  | 42 nM | 
5 | CCN(C(=O)c1cc(-c2cc3c(cc2C(=O)N2Cc4ccccc4C[C@H]2C)OCO3)n2c1CNCC2)c1ccc(O)cc1 [Example 73, N-Ethyl-N-(4-hydroxyphenyl)-6-(6-{[(3R)-3-methyl-3,4-dihydroiso-quinolin-2(1H)-yl]carbonyl}-1,3-benzodioxol-5-yl)-1,2,3,4-tetrahydropyrrolo[1,2-a]-pyrazine-8-carboxamide] | 83.6 nM |  | 1320 nM | 
6 | CN(C(=O)c1cc(-c2cc3c(cc2C(=O)N2CCc4ccccc4C2)OCO3)n2c1CCCC2)c1ccc(O)cc1 [Example 74, 3-[6-(3,4-Dihydroisoquinolin-2(1H)-ylcarbonyl)-1,3-benzodioxol-5-yl]-N-(4-hydroxyphenyl)-N-methyl-5,6,7,8-tetrahydroindolizine-1-carboxamide] | 68.7 nM |  | 1340 nM | 
7 | CCN(C(=O)c1cc(-c2cc3c(cc2C(=O)N2CCc4ccccc4C2)OCO3)n2c1CCCC2)c1ccc(O)cc1 [Example 75, 3-[6-(3,4-Dihydroisoquinolin-2(11)-ylcarbonyl)-1,3-benzodioxol-5-yl]-N-ethyl-N-(4-hydroxyphenyl)-5,6,7,8-tetrahydroindolizine-1-carboxamide] | 67.7 nM |  | 1360 nM | 
8 | CCCCN(C(=O)c1cc(-c2cc3c(cc2C(=O)N2CCc4ccccc4C2)OCO3)n2c1CCCC2)c1ccc(O)cc1 [Example 76, N-Butyl-3-[6-(3,4-dihydroisoquinolin-2(1H)-ylcarbonyl)-1,3-benzo-dioxol-5-yl]-N-(4-hydroxyphenyl)-5,6,7,8-tetrahydroindolizine-1-carboxamide] | 77.6 nM |  | 1630 nM | 
9 | CCN(C(=O)c1cc(-c2cc3c(cc2C(=O)N2Cc4ccccc4C[C@@H]2C)OCO3)n2c1CNCC2)c1ccc(O)cc1 [Example 77, N-Ethyl-N-(4-hydroxyphenyl)-6-(6-{[(3S)-3-methyl-3,4-dihydroiso-quinolin-2(1H)-yl]carbonyl}-1,3-benzodioxol-5-yl)-1,2,3,4-tetrahydropyrrolo[1,2-a]-pyrazine-8-carboxamide] |  | 25.1% @ 10 μM |  | 1880 nM
10 | CCCCN(CCCC)C(=O)c1cc(-c2cc3c(cc2C(=O)N2Cc4ccccc4C[C@H]2C)OCO3)n2c1CNCC2 [Example 78, N,N-Dibutyl-6-(6-{[(3R)-3-methyl-3,4-dihydroisoquinolin-2(1H)-yl]-carbonyl}-1,3-benzodioxol-5-yl)-1,2,3,4-tetrahydropyrrolo[1,2-a]pyrazine-8-carboxamide] | 823 nM |  | 1880 nM | 
11 | CCCCN(C(=O)c1cc(-c2cc3c(cc2C(=O)N2Cc4ccccc4C[C@H]2C)OCO3)n2c1CNCC2)c1ccc(O)cc1 [Example 79, N-Butyl-N-(4-hydroxyphenyl)-6-(6-{[(3R)-3-methyl-3,4-dihydroiso-quinolin-2(1H)-yl]carbonyl}-1,3-benzodioxol-5-yl)-1,2,3,4-tetrahydropyrrolo[1,2-a]-pyrazine-8-carboxamide] | 99.1 nM |  | 1010 nM | 
12 | CC(C)N(C(=O)c1cc(-c2cc3c(cc2C(=O)N2Cc4ccccc4C[C@H]2C)OCO3)n2c1CNCC2)c1ccc(O)cc1 [Example 80, N-(4-Hydroxyphenyl)-6-(6-{[(3R)-3-methyl-3,4-dihydroisoquinolin-2(1H)-yl]carbonyl}-1,3-benzodioxol-5-yl)-N-(propan-2-yl)-1,2,3,4-tetrahydro-pyrrolo[1,2-a]pyrazine-8-carboxamide] | 299 nM |  | 1880 nM | 

Now from value to compound, other results behind:

Row | IC50 [2] | percentage fluorescence polarisation inhibition (partial inhibitors), Bcl-2 FP [2] | SMILES | IC50 ([1]; Homo sapiens) | IC50 [1]
13 | 5.4 nM |  | C[C@@H]1Cc2ccccc2CN1C(=O)c1ccc(F)cc1-c1cc(C(=O)N(c2ccc(O)cc2)c2cnn(C)c2)c2ccccn12 [Example 60, 3-(5-Fluoro-2-{[(3R)-3-methyl-3,4-dihydroisoquinolin-2(1H)-yl]-carbonyl}phenyl)-N-(4-hydroxyphenyl)-N-(1-methyl-1H-pyrazol-4-yl)indolizine-1-carboxamide] | 60.3 nM | 
14 | 5.6 nM |  | C[C@@H]1Cc2ccccc2CN1C(=O)c1ccc(F)cc1-c1cc(C(=O)N(c2ccncc2)c2ccc(O)cc2)c2ccccn12 [Example 62, 3-(5-Fluoro-2-{[(3R)-3-methyl-3,4-dihydroisoquinolin-2(1H)-yl]-carbonyl}phenyl)-N-(4-hydroxyphenyl)-N-(pyridin-4-yl)indolizine-1-carboxamide] | 96.6 nM | 
15 | 7.8 nM |  | C[C@@H]1Cc2ccccc2CN1C(=O)c1ccc(F)cc1-c1cc(C(=O)N(c2ccncc2)c2ccc(O)cc2)c2n1CCCC2 [Example 64, 3-(5-Fluoro-2-{[(3R)-3-methyl-3,4-dihydroisoquinolin-2(1H)-yl]-carbonyl}phenyl)-N-(4-hydroxyphenyl)-N-(pyridin-4-yl)-5,6,7,8-tetrahydroindolizine-1-carboxamide] | 282 nM | 
16 | 8.3 nM |  | C[C@@H]1Cc2ccccc2CN1C(=O)c1ccccc1-c1cc(C(=O)N(c2ccncc2)c2ccc(O)cc2)c2ccccn12 [Example 68, N-(4-Hydroxyphenyl)-3-(2-{[(3R)-3-methyl-3,4-dihydroisoquinolin-2(1H)-yl]carbonyl}phenyl)-N-(pyridin-4-yl)indolizine-1-carboxamide hydrochloride] | 82.4 nM | 
17 | 4.6 nM |  | Cn1ccc2cc(N(C(=O)c3cc(-c4cc5c(cc4C(=O)N4Cc6ccccc6C[C@H]4CCCN4CCOCC4)OCO5)n4c3CCCC4)c3ccc(O)cc3)cnc21 [Example 69, N-(4-Hydroxyphenyl)-N-(1-methyl-1H-pyrrolo[2,3-b]pyridin-5-yl)-3-(6-{[(3R)-3-[3-(morpholin-4-yl)propyl]-3,4-dihydroisoquinolin-2(1H)-yl]carbonyl}-1,3-benzodioxol-5-yl)-5,6,7,8-tetrahydroindolizine-1-carboxamide hydrochloride] | 1.38 nM | 
18 | 5.2 nM |  | C[C@@H]1Cc2ccccc2CN1C(=O)c1cc2c(cc1-c1cc(C(=O)N(c3ccc(O)cc3)c3cnc4c(cnn4C)c3)c3ccccn13)OCO2 [Example 70, N-(4-Hydroxyphenyl)-3-(6-{[(3R)-3-methyl-3,4-dihydroisoquinolin-2(1,H)-yl]carbonyl]-1,3-benzodioxol-5-yl)-N-(1-methyl-1H-pyrazolo[3,4-b]pyridin-5-yl)indolizine-1-carboxamide] | 6.17 nM | 
19 | 90.2 nM |  | C[C@@H]1Cc2ccccc2CN1C(=O)c1cc2c(cc1-c1cc(C(=O)N(C)c3ccc(O)cc3)c3n1CCNC3)OCO2 [Example 72, N-(4-Hydroxyphenyl)-N-methyl-6-(6-{[(3R)-3-methyl-3,4-dihydroiso-quinolin-2(1H)-yl]carbonyl}-1,3-benzodioxol-5-yl)-1,2,3,4-tetrahydropyrrolo[1,2-a]-pyrazine-8-carboxamide] | 1520 nM | 
20 | 12.1 nM |  | C[C@@H]1Cc2ccccc2CN1C(=O)c1cc2c(cc1-c1cc(C(=O)N(C)c3ccc(O)cc3)c3n1CCCC3)OCO2 [Example 81, N-(4-Hydroxyphenyl)-N-methyl-3-(6-{[(3R)-3-methyl-3,4-dihydroiso-quinolin-2(1H)-yl]carbonyl}-1,3-benzodioxol-5-yl)-5,6,7,8-tetrahydroindolizine-1-carboxamide] | 778 nM | 
21 |  | 42% @ 10 μM | C[C@H]1Cc2ccccc2CN1C(=O)c1cc2c(cc1-c1cc(C(=O)N(C)c3ccc(O)cc3)c3n1CCCC3)OCO2 [Example 82, N-(4-Hydroxyphenyl)-N-methyl-3-(6-{[(3S)-3-methyl-3,4-dihydroiso-quinolin-2(1H)-yl]carbonyl}-1,3-benzodioxol-5-yl)-5,6,7,8-tetrahydroindolizine-1-carboxamide] |  | 1880 nM
22 | 35.8 nM |  | CN(C(=O)c1cc(-c2cc3c(cc2C(=O)N2CCc4ccccc4C2)OCO3)n2ccccc12)c1ccc(O)cc1 [Example 83, 3-[6-(3,4-Dihydroisoquinolin-2(1H)-ylcarbonyl)-1,3-benzodioxol-5-yl]-N-(4-hydroxyphenyl)-N-methylindolizine-1-carboxamide] | 1500 nM | 
